Reference: patent publication US8940720B2, “Macrocycles as factor XIa inhibitors” (Bristol-Myers Squibb Company, priority 2010, dated 2015)
Where a name gives a salt, the structure may show the parent alone.

target: purified human Factor XIa (Homo sapiens (Human), UniProt P03951); test: Factor XIa enzyme inhibition assay (chromogenic substrate S-2366); format: biochemical; conditions: substrate S-2366, pH 7.4
Procedure: The effectiveness of compounds of the present invention as inhibitors of the coagulation Factors XIa, VIIa, IXa, Xa, XIIa, plasma kallikrein or thrombin, can be determined using a relevant purified serine protease, respectively, and an appropriate synthetic substrate. The rate of hydrolysis of the chromogenic or fluorogenic substrate by the relevant serine protease was measured both in the absence and presence of compounds of the present invention. […] A decrease in the rate of absorbance or fluorescence change in the presence of inhibitor is indicative of enzyme inhibition. Such methods are known to one skilled in the art. The results of this assay are expressed as the inhibitory constant, Ki.
Values of Ki were determined by allowing the protease to react with the substrate in the presence of the inhibitor. Reactions were allowed to go for periods of 20-180 minutes (depending on the protease) and the velocities (rate of absorbance or fluorescence change versus time) were measured. The following relationships were used to calculate Ki values: (vo−vs)/vs=I/(Ki(1+S/Km)) for a competitive inhibitor with one binding site; or vs/vo=A+((B−A)/1+((IC50/(I)n))); and Ki=IC50/(1+S/Km) for a competitive inhibitor where: […]

Chain of purified human Factor XIa (P03951 388-625): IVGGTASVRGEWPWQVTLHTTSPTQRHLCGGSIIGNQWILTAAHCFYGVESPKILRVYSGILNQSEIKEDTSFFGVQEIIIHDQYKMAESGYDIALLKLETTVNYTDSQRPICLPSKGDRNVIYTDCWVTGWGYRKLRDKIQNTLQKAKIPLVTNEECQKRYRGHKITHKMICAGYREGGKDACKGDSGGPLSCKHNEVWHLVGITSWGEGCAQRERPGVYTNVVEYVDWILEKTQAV
Chain of purified human Factor XIa (P03951 19-387 partner): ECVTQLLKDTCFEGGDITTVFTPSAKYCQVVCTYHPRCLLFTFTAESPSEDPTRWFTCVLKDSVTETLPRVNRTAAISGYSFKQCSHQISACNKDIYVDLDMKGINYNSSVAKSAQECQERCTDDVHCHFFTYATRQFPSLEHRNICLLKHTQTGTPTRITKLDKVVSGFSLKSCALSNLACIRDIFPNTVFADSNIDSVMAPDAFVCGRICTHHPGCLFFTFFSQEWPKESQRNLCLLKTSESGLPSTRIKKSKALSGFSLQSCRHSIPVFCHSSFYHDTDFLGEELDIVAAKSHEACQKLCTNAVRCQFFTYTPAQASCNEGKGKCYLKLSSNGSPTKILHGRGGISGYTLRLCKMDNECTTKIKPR

| Ki [nM] | Structure (SMILES) |
| --- | --- |
| 203 | CCOC(=O)[C@@H]1CCCC[C@H](NC(=O)/C=C/c2cc(Cl)ccc2-n2cnnn2)c2nc(c[nH]2)-c2ccc(NC(=O)OC)cc2N1 [Example I-67, (9S,14S)-14-[(E)-3-(5-Chloro-2-tetrazol-1-yl-phenyl)-acryloylamino]-5-methoxycarbonylamino-8,16,18-triaza-tricyclo[13.2.1.0^2,7]octadeca-1(17),2,4,6,15(18)-pentaene-9-carboxylic acid ethyl ester, 2 TFA salt] |
| < 5 | COC(=O)Nc1ccc2c(c1)NC(=O)CCCC[C@H](NC(=O)c1ccc(C(=N)N)cc1)c1nc-2c[nH]1 [Example I-4] |
| 3870 | COC(=O)Nc1ccc2c(c1)N(C(=O)OC)CCCCC[C@H](NC(=O)/C=C/c1cc(Cl)ccc1-n1cnnn1)c1nc-2c[nH]1 [Example I-108] |
| < 5 | CCOC(=O)C1CCCCC(NC(=O)/C=C/c2cc(Cl)ccc2-n2cnnn2)c2cc(cc(=O)[nH]2)-c2ccc(NC(=O)OC)cc2N1 (centres unmarked) [II-62] |
| < 5 | COCCOC(=O)Nc1ccc2c(c1)N[C@@H](C(=O)OC)CCCC[C@H](NC(=O)/C=C/c1cc(Cl)ccc1-n1cnnn1)c1nc-2c(C#N)[nH]1 [Example I-278] |
| 962 | COC(=O)Nc1ccc2c(c1)NC(=O)CC/C=C/C[C@H](NC(=O)c1ccc(C#N)cc1)c1nc-2c(Cl)[nH]1 [Example 136, [(E)-(S)-18-Chloro-15-(4-cyano-benzoylamino)-9-oxo-8,17,19-triaza-tricyclo[14.2.1.0^2,7]nonadeca-1(18),2,4,6,12,16(19)-hexaen-5-yl]-carbamic acid methyl ester, 1 TFA salt] |
| 1650 | COC(=O)Nc1ccc2c(c1)NC(=O)CC/C=C/C[C@H](NC(=O)c1ccc3c(c1)CCC[C@@H]3N)c1nc-2c[nH]1 [Example I-153] |
| 4160 | COC(=O)Nc1ccc2c(c1)NC(C(F)(F)F)CCCC[C@H](NC(=O)c1ccc(C(=N)N)cc1)c1cc-2ccn1 (some centres unmarked) [II-15] |
| < 5 | COC(=O)Nc1ccc2c(c1)NC(=O)CCCC[C@H](NC(=O)/C=C/c1cc(Cl)ccc1-n1cnnn1)C1=NC=C2O1 [Example I-134, Methyl N-[(14S)-14-[(2E)-3-[5-chloro-2-(1H-1,2,3,4-tetrazol-1-yl)phenyl]prop-2-enamido]-9-oxo-18-oxa-8,16-diazatricyclo[13.2.1.0^2,7]octadeca-1(17),2(7),3,5,15-pentaen-5-yl]carbamate, trifluoroacetic acid salt] |
| 270 | COC(=O)Nc1ccc2c(c1)N[C@@H](C(F)(F)F)CCCC[C@H](NC(=O)/C=C/c1cc(Cl)ccc1-n1cnnn1)c1nc-2c(C)[nH]1 [Example I-70] |
| 19 | COC(=O)Nc1ccc2c(c1)NCCCCC[C@H](NC(=O)/C=C/c1cc(Cl)ccc1-n1cnnn1)c1nc-2c(C(=O)N(C)C)[nH]1 [Example I-299] |
| < 5 | COC(=O)Nc1ccc2c(c1)NC(=O)CC/C=C/C[C@H](NC(=O)/C=C/c1c(C(F)(F)F)ccc(Cl)c1F)c1nc-2c(Cl)[nH]1 [Example I-311] |
| 4520 | COC(=O)Nc1ccc2c(c1)NCC(F)(F)C(=O)NC[C@H](NC(=O)/C=C/c1cc(Cl)ccc1-n1cnnn1)c1nc-2c[nH]1 [Example 21, {(S)-14-[(E)-3-(5-Chloro-2-tetrazol-1-yl-phenyl)-acryloylamino]-10,10-difluoro-11-oxo-8,12,16,18-tetraaza-tricyclo[13.2.1.0^2,7]octadeca-1(17),2,4,6,15(18)-pentaen-5-yl}-carbamic acid methyl ester] |
| < 5 | O=C(/C=C/c1cc(Cl)ccc1-n1cnnn1)N[C@H]1C/C=C/COC(=O)Nc2ccccc2-c2nc1[nH]c2Cl [Example 121, (E)-N-((E)-(S)-18-Chloro-9-oxo-10-oxa-8,17,19-triaza-tricyclo[14.2.1.0^2,7]nonadeca-1(18),2,4,6,12,16(19)-hexaen-15-yl)-3-(5-chloro-2-tetrazol-1-yl-phenyl)-acrylamide] |
